Data: the NIST ThermoML archive (doi:10.1021/je201009c)
± gives the expanded uncertainty stated by the source.

Test: refractive index (Na D-line) (dimensionless); xn = mol fraction of the nth substance listed
Conditions: Liquid, Standard Abbe refractometry

OCc1ccccc1 [benzenemethanol] + CCO
refractive index, 100.8 kPa
Conditions	293.15 K	303.15 K	313.15 K	323.15 K
x2 = 0	1.54049 ± 0.001	1.53635 ± 0.001	1.53215 ± 0.001	1.52796 ± 0.001
x2 = 0.05	1.53607 ± 0.001	1.53175 ± 0.001	1.52743 ± 0.001	1.52308 ± 0.001
x2 = 0.1	1.53119 ± 0.001	1.52681 ± 0.001	1.5225 ± 0.001	1.51807 ± 0.001
x2 = 0.1504	1.52584 ± 0.001	1.5215 ± 0.001	1.51718 ± 0.001	1.51273 ± 0.001
x2 = 0.1999	1.52041 ± 0.001	1.51591 ± 0.001	1.51156 ± 0.001	1.50721 ± 0.001
x2 = 0.2502	1.51444 ± 0.001	1.51002 ± 0.001	1.5056 ± 0.001	1.50123 ± 0.001
x2 = 0.3003	1.50804 ± 0.001	1.50367 ± 0.001	1.49935 ± 0.001	1.49494 ± 0.001
x2 = 0.3499	1.50154 ± 0.001	1.49716 ± 0.001	1.49265 ± 0.001	1.48825 ± 0.001
x2 = 0.3998	1.49454 ± 0.001	1.49014 ± 0.001	1.48568 ± 0.001	1.48127 ± 0.001
x2 = 0.45	1.48707 ± 0.001	1.4826 ± 0.001	1.47818 ± 0.001	1.47378 ± 0.001
x2 = 0.5001	1.4791 ± 0.001	1.47469 ± 0.001	1.4703 ± 0.001	1.46589 ± 0.001
x2 = 0.55	1.47074 ± 0.001	1.46632 ± 0.001	1.46191 ± 0.001	1.45755 ± 0.001
x2 = 0.5999	1.46176 ± 0.001	1.45731 ± 0.001	1.45296 ± 0.001	1.44855 ± 0.001
x2 = 0.65	1.4522 ± 0.001	1.4477 ± 0.001	1.44333 ± 0.001	1.43892 ± 0.001
x2 = 0.6997	1.44199 ± 0.001	1.43754 ± 0.001	1.43309 ± 0.001	1.4287 ± 0.001
x2 = 0.75	1.43095 ± 0.001	1.42651 ± 0.001	1.42212 ± 0.001	1.41775 ± 0.001
x2 = 0.7999	1.41922 ± 0.001	1.41479 ± 0.001	1.4104 ± 0.001	1.40607 ± 0.001
x2 = 0.8496	1.40661 ± 0.001	1.40202 ± 0.001	1.39761 ± 0.001	1.39329 ± 0.001
x2 = 0.8998	1.39275 ± 0.001	1.38825 ± 0.001	1.38389 ± 0.001	1.37963 ± 0.001
x2 = 0.95	1.37776 ± 0.001	1.37331 ± 0.001	1.36905 ± 0.001	1.36475 ± 0.001

CC(=O)OCc1ccccc1 [benzyl ethanoate] + OCc1ccccc1
refractive index, 101 kPa
Conditions	293.15 K	303.15 K	313.15 K	323.15 K
x1 = 0.05	1.53821 ± 0.00033	1.5339 ± 0.00033	1.52962 ± 0.00033	1.52532 ± 0.00033
x1 = 0.1001	1.53584 ± 0.00033	1.53143 ± 0.00033	1.52715 ± 0.00033	1.52278 ± 0.00033
x1 = 0.1502	1.53352 ± 0.00033	1.52903 ± 0.00033	1.52471 ± 0.00033	1.5203 ± 0.00033
x1 = 0.2001	1.53127 ± 0.00033	1.52673 ± 0.00033	1.52235 ± 0.00033	1.51791 ± 0.00033
x1 = 0.25	1.52907 ± 0.00034	1.52449 ± 0.00034	1.52007 ± 0.00034	1.5156 ± 0.00034
x1 = 0.3	1.52689 ± 0.00034	1.52231 ± 0.00034	1.51785 ± 0.00034	1.51335 ± 0.00034
x1 = 0.3498	1.5248 ± 0.00034	1.52022 ± 0.00034	1.51571 ± 0.00034	1.51118 ± 0.00034
x1 = 0.4001	1.52279 ± 0.00034	1.51819 ± 0.00034	1.51362 ± 0.00034	1.50908 ± 0.00034
x1 = 0.45	1.52083 ± 0.00034	1.51621 ± 0.00034	1.5116 ± 0.00034	1.50704 ± 0.00034
x1 = 0.5	1.51893 ± 0.00035	1.51428 ± 0.00035	1.50964 ± 0.00035	1.50506 ± 0.00035
x1 = 0.5501	1.5171 ± 0.00035	1.51239 ± 0.00035	1.50774 ± 0.00035	1.50314 ± 0.00035
x1 = 0.6001	1.5153 ± 0.00035	1.51057 ± 0.00035	1.5059 ± 0.00035	1.50128 ± 0.00035
x1 = 0.65	1.51352 ± 0.00035	1.50881 ± 0.00035	1.5041 ± 0.00035	1.49946 ± 0.00035
x1 = 0.6999	1.51182 ± 0.00035	1.50711 ± 0.00035	1.50237 ± 0.00035	1.49771 ± 0.00035
x1 = 0.7502	1.51014 ± 0.00036	1.50545 ± 0.00036	1.5007 ± 0.00036	1.49598 ± 0.00036
x1 = 0.8	1.50852 ± 0.00036	1.50383 ± 0.00036	1.49906 ± 0.00036	1.49434 ± 0.00036
x1 = 0.85	1.50696 ± 0.00036	1.50227 ± 0.00036	1.49748 ± 0.00036	1.49276 ± 0.00036
x1 = 0.9	1.50544 ± 0.00036	1.50075 ± 0.00036	1.49596 ± 0.00036	1.49124 ± 0.00036
x1 = 0.95	1.50396 ± 0.00037	1.49926 ± 0.00037	1.4945 ± 0.00037	1.48976 ± 0.00037
x1 = 1	1.50245 ± 0.00037	1.49776 ± 0.00037	1.49309 ± 0.00037	1.48834 ± 0.00037

CC(=O)OCc1ccccc1 [benzyl ethanoate] + CCO
refractive index, 100.8 kPa
Conditions	293.15 K	303.15 K	313.15 K	323.15 K
x2 = 0	1.50245 ± 0.0011	1.49776 ± 0.0011	1.49309 ± 0.0011	1.48834 ± 0.0011
x2 = 0.0502	1.49958 ± 0.0011	1.49479 ± 0.0011	1.49006 ± 0.0011	1.48521 ± 0.0011
x2 = 0.1	1.49646 ± 0.0011	1.49168 ± 0.0011	1.48693 ± 0.0011	1.48205 ± 0.0011
x2 = 0.1498	1.49316 ± 0.001	1.48838 ± 0.001	1.48362 ± 0.001	1.47874 ± 0.001
x2 = 0.1998	1.48968 ± 0.001	1.48491 ± 0.001	1.48007 ± 0.001	1.47517 ± 0.001
x2 = 0.2499	1.48589 ± 0.001	1.48118 ± 0.001	1.47629 ± 0.001	1.47143 ± 0.001
x2 = 0.2998	1.4819 ± 0.001	1.47715 ± 0.001	1.47228 ± 0.001	1.46739 ± 0.001
x2 = 0.35	1.4776 ± 0.001	1.47284 ± 0.001	1.46794 ± 0.001	1.46309 ± 0.001
x2 = 0.4	1.47289 ± 0.001	1.46818 ± 0.001	1.46327 ± 0.001	1.45847 ± 0.001
x2 = 0.4501	1.46787 ± 0.001	1.46316 ± 0.001	1.45826 ± 0.001	1.45346 ± 0.001
x2 = 0.5	1.46245 ± 0.001	1.45772 ± 0.001	1.45286 ± 0.001	1.44807 ± 0.001
x2 = 0.5499	1.45652 ± 0.001	1.45179 ± 0.001	1.44703 ± 0.001	1.44215 ± 0.001
x2 = 0.6	1.44996 ± 0.001	1.44531 ± 0.001	1.44052 ± 0.001	1.43561 ± 0.001
x2 = 0.65	1.44279 ± 0.001	1.43815 ± 0.001	1.43339 ± 0.001	1.42851 ± 0.001
x2 = 0.7	1.43481 ± 0.001	1.43018 ± 0.001	1.42552 ± 0.001	1.42067 ± 0.001
x2 = 0.7499	1.42603 ± 0.001	1.42142 ± 0.001	1.41682 ± 0.001	1.41198 ± 0.001
x2 = 0.7999	1.41623 ± 0.001	1.41163 ± 0.001	1.40711 ± 0.001	1.40231 ± 0.001
x2 = 0.85	1.40518 ± 0.001	1.40062 ± 0.001	1.39617 ± 0.001	1.39132 ± 0.001
x2 = 0.9	1.39263 ± 0.001	1.38811 ± 0.001	1.38375 ± 0.001	1.37895 ± 0.001
x2 = 0.95	1.3782 ± 0.001	1.37384 ± 0.001	1.36951 ± 0.001	1.36489 ± 0.001
